Literature values as cited in patent publication US11110072B2, “Broad spectrum pharmacological composition for treatment of various infections and diseases and methods of use” (Greyfer Innova Pharma, LLC, priority 2013, dated 2021).

Legend:
[1] = even at high concentrations
[2] = after oral administration

Q: With O=C(O)CC(O)(CC(=O)O)C(=O)O [Citric acid, 2-hydroxytricarboxylic acid] as the compound, how does the “effect in contact with skin” value [1] read?
A: not injurious in contact with skin

Q: What about the “excreted unchanged in urine” value [2] of the same compound?
A: less than 1%
